The text below walks through data of a melting point compilation (Tetko et al.; mined from patent text by program, amines drawn as free bases though some values may be those of a salt).

As usually defined, the melting point is the temperature, or range, at which the solid turns liquid.

Each structure is given as a SMILES string. Residues, ends and D or L forms follow the SMILES beside them. *: point of attachment. NHPhenethyl = c1ccc(CCN*)cc1; Cbz = O=C(OCc1ccccc1)*

`Cc1nc(-c2cccc(CN(C(=O)Nc3ccc(Br)cc3)c3ccccc3)c2)no1` registered a melting point of 145 to 146 °C.
`CC(C)(C)OC(=O)N1CC(NS(=O)(=O)c2ccc(Oc3ccccc3)cc2)C(SC(C)(C)C)C1` (configuration not stated): the melting point was 85 to 86 °C.
For `CCOC(=O)c1[nH]c2cc(F)ccc2c1NCCC(=O)c1ccccc1` the value was 265 to 270 °C; for `CC(=O)c1c(-c2ccccc2)nn(CC2CC2)c(=O)c1Nc1cccc2cccnc12`, 123 to 125 °C; for `Cc1cc(C)c2c(c1O)C(N)C(c1ccccc1)C2` (configuration not stated), 135 to 136 °C.
As to `CC(C)(C)C(=O)CN1C(=O)C(NC(=O)Nc2ccccc2)CN(C2CCCCC2)c2ccccc21` (configuration not stated), the melting point fell in the range of 247 to 251 °C.
In turn, `O=C(NNc1ccccc1)NC1(N=NC2(NC(=O)NNc3ccccc3)CCCCC2)CCCCC1` registered a melting point of 148 to 151 °C.
`O=C(Nc1ccc2c(c1)CCC2=O)c1cc(Cl)ccc1Cl` registered a melting point of 218 to 221 °C.
As for `O=[N+]([O-])c1ccc(C=Cc2nc(Nc3ccccc3)c3ccccc3n2)o1`, the figure is 183 °C.
In turn, `COP(=O)(Cc1ccc(CP(=O)(OC)OC)cc1)OC` yielded a melting point of 106 °C.
Regarding `CCN(CC)CC(O)c1cccc2ccoc12` (configuration not stated), the melting point is 116 °C.
Molecule `Nc1ccc(N2CCN(CCCN3c4cccc5cccc(c45)S3(=O)=O)CC2)cc1` yielded a melting point of 113 °C.
As for `O=C(Nc1cccnn1)N1CCN(c2nccc(-c3ccc(F)c(F)c3)n2)CC1`, the figure is 218 to 219 °C; as for `CN1CCN(Cc2ccc3c(c2)Cc2c(-c4ccsc4)n[nH]c2-3)CC1`, 115 to 117 °C; as for `CS(=O)(=O)c1ccc(-c2cnn(-c3ccoc3)c(=O)c2-c2ccc(F)cc2)cc1`, 239 to 242 °C.
Molecule `Cn1cnc(C(O)c2cc(Cl)cc3c2OC(C)(C)OC3)c1` (configuration not stated) registered a melting point of 131 to 136 °C.
Molecule `CC(C)N(C(=S)Nc1ccc(NC(=S)N(C(C)C)C(C)C)cc1)C(C)C` had a melting point of 185 °C.
Regarding `CCC1(C)C(=O)c2c(cc(OCC(=O)O)c(Cl)c2Cl)C1c1ccccc1` (configuration not stated), the melting point turned out to be 192 °C.
`N#Cc1ccc2nc(N[C@@H]3CCc4ccccc43)ccc2c1` showed a melting point of 164 °C.
For `COc1cccc(OC)c1C(=O)P(=O)(C(=O)c1c(C)cc(C)cc1C)c1ccccc1` (configuration not stated) the value was 126 to 127 °C; for `CN(C(=O)Nc1nc(OCC(F)(F)F)cc(OCC(F)(F)F)n1)c1ccc(OC(F)(F)F)cc1`, 100 to 102 °C.
For `ClCCCCOc1ccc(OCCCCCl)cc1` the value was 158 to 159 °C; for `Cc1nc2nc(S(=O)(=O)Cl)nn2c(C)c1Cl`, 131 to 133 °C; for `[N-]=[N+]=N[C@H]1CC[C@@H](NC(=O)OCc2ccccc2)CC1`, 42 to 46 °C.
For `CCC1=C(C)CN(C(=O)NCC2CCOc3cc(O)c(S(N)(=O)=O)cc32)C1=O` (configuration not stated) the value was 175 °C; for `CC(C)(Cn1c(CO)nc2c(N)nc3ccccc3c21)NS(C)(=O)=O`, 262 to 265 °C.
As for `CN1C2CCC1CN(c1ccc(-c3ccccc3)nn1)C2`, the melting point stood at 151 °C.
In the case of `Clc1cccc(Nc2ccccc2)c1`, the melting point lay within 128 to 138 °C.
As for `CC(C)[C@H](NC(=O)OCc1ccccc1)[C@H](O)C(F)(F)F`, the figure is 103 to 104 °C.
With `O=C(NCCc1ccccc1Cl)c1ccccc1`, the melting point lay in the range of 70.1 to 71 °C.
As to `O=C(CCc1ccccc1)Nc1cc(-c2nnc(CCc3cccc(C(F)(F)F)c3)o2)ccn1`, the melting point was 169 to 170 °C.
Turning to `COc1cc(Cn2cnc3cccnc32)ccc1C(=O)N(C(C)C)C1CCCCC1`, the melting point was in the range of 96 to 98 °C.
`NC(=O)c1cc(-c2c[nH]nc2-c2ccc(F)cc2)ccn1` returned a melting point of 230 to 231 °C.
For `CC(C)c1ccc(N(Cc2cnn(CC(=O)O)c2)C(=O)C2CCCc3c(OCc4ccccc4)cccc32)cc1` (configuration not stated), the melting point is 180 to 182 °C.
For `Cc1cc(C(=O)C=C(c2cc(Cl)cc(Cl)c2)C(F)(F)F)ccc1C(=O)O` the value was 123 to 126 °C; for `CCOC(=O)c1cn(-c2ccc(F)cc2F)c2nc(SCC)c(F)cc2c1=O`, 170 to 171 °C; for `CC(C)c1ccc(S(=O)(=O)Nc2cnc(I)cc2C(F)(F)F)cc1`, 156 °C.
As for `NS(=O)(=O)c1ccc(-c2ccccc2-c2ccc(F)cc2)cc1`, the figure is 187 to 188 °C.
Consider `Cc1cccc(C(=O)CC2CCCN(C)C2)c1` (configuration not stated), for which the melting point lay within 92 to 94 °C.
Take `CC(=O)Nc1ccc(C(=O)NCc2ccc(-n3c(-c4cccnc4N)nc4cc(C)cnc43)cc2)cc1`: the melting point was in the range of 171 to 172 °C.
Regarding `CCN(CC)Cc1ccc2[nH]c(C)c(C(=O)OCc3ccccc3)c2c1`, the melting point lay in the range of 106 to 108 °C.
Turning to `Cc1cc2c(c(C)c1S(=O)(=O)C[N+](=O)[O-])CCC(C)(C)O2`, the melting point was 110 to 111 °C.
Take `O=S1(=O)CCN2CCCC(c3ccc(Oc4ccc(Cl)cc4)cc3)C2=N1` (configuration not stated): the melting point is 215 to 216 °C.
Consider `CCC(=O)N1CCC(NC(=O)Nc2c(Cl)cccc2Cl)CC1`, for which the melting point was in the range of 170 to 174 °C.
The molecule `CNS(=O)(=O)c1cn(C)c2cc(Cl)c(F)cc2c1=O` displayed a melting point of 235 to 236 °C.
Take `CCOC(=O)COc1cc(C(C)C)c(NC(=O)CN2CCN(CCSc3nc4ccccc4o3)CC2)c(C(C)C)c1`: the melting point was 118 to 120 °C.
The molecule `O=C(CC(c1ccccc1)c1ccccc1)NC(Cc1ccccc1)C(=O)O` (configuration not stated) showed a melting point of 138 to 140 °C.
`CCN1C(=O)C(C)(C)C(=O)N(C)c2cc(CN(CCn3ccc4ccsc4c3=O)Cc3cc(C)nn3C)ccc21` showed a melting point of 127 to 128 °C.
The molecule `CC(C)n1cc(-c2ccc(F)cc2)c(-c2ccc(F)cc2)c1C(=O)O` came in with a melting point of 212 °C.
The molecule `NC(=O)CC(NC(=O)C(CO)NC(=O)CNC(=O)CNC(=O)OCc1ccccc1)C(=O)NC(Cc1ccccc1)C(=O)NCCc1ccccc1` (configuration not stated) (Cbz-GGSNF-NHPhenethyl; configuration not given here) returned a melting point of 225 to 229 °C.
`CCC(CC)N(Cc1ccc(C(=O)OC)cc1)S(=O)(=O)c1ccc(F)cc1` had a melting point of 78 to 80 °C.
`CC(C)COC(=O)N=C(N=C1NC(=O)C(=O)N1c1ccc(Cl)c(Cl)c1)NC(C)C` yielded a melting point of 260 °C.
With `CCOC(=O)C(=O)Nc1cc(N2CCOCC2)ccc1OC`, the melting point was in the range of 95 to 97 °C.
`COc1cc(OC)c(-c2cccn2C(=O)OC(C)(C)C)cc1/C=C/C(=O)c1ccc(C(=O)O)cc1` displayed a melting point of 205 to 207 °C.
`CCCN(CCC)C(=O)Cn1c(-c2ccc(Cl)cc2)nc2cccnc21` yielded a melting point of 156 to 157 °C.
For `NC(=O)Nc1ccc(N2CCN(c3ccncc3)CC2)cc1`, the melting point is over 250 °C.
Take `Nc1cc(Cl)c(I)c(Cl)c1`: the melting point lay within 147 to 148 °C.
As for `CNC(=O)c1c(-c2ccccn2)c2ccccc2n(C)c1=O`, the figure is 239 to 240 °C.
`Nc1cc(-c2ccccn2)c[nH]c1=O`: the melting point was 259 to 262 °C.
As to `Cc1ccc(S(=O)(=O)c2ccc(O)cc2)c(Br)n1`, the melting point was 99 to 102 °C.
Regarding `Nc1nc2cccnc2c2c1nc(CO)n2CC1(O)CCC1`, the melting point was in the range of 244 to 246 °C.
As to `O=Cc1c[nH]c2c1ccc1c3cccc(Br)c3[nH]c12`, the melting point is over 250 °C.
For `COc1c(N2CCC(CN)(CF)C2)c(F)cc2c(=O)c(C(=O)O)cn(C3CC3)c12` (configuration not stated) the value was 188 to 190 °C.
Regarding `COc1ccc2c(c1)NC(=O)C(Cl)CC2` (configuration not stated), the melting point was in the range of 162 to 163 °C.
As for `COc1ccc(C2(C#Cc3cccc(-c4nnc(C)o4)c3)CCCC(=O)C2)cc1OC1CCCC1` (configuration not stated), the figure is 117 to 119 °C; as for `C#CCCCCCCOC(c1ccccc1)(c1ccccc1)c1ccccc1`, 43 to 45 °C.
With `CC(=O)N[C@@H](CCc1ccc([N+](=O)[O-])cc1)C(=O)O`, the melting point was in the range of 211 to 213 °C.
As for `ClCC1c2ccccc2Oc2ccccc21`, the melting point was 104 to 106 °C.
As for `CCCc1c(OCc2ccccc2)ccc2c1OC(C(=O)OC)(C1CC1C(=O)OC)CC2` (configuration not stated), the figure is 82 to 84 °C; as for `CN(c1ccc2ccccc2c1)C(C(=O)O)c1c(Cl)cccc1Cl` (configuration not stated), 144 °C.
In turn, `CC(C)(C)OC(=O)NCCNC(=O)c1ncccc1OCc1ccccc1` had a melting point of 145 to 147 °C.
On to `O=C(O)CCC(=O)N1CCN(c2ccccn2)CC1`, for which the melting point was 125 to 127 °C.
Take `CNC(=O)N(N(CCCl)S(C)(=O)=O)S(C)(=O)=O`: the melting point fell in the range of 146 to 148 °C.
Turning to `COc1ccc(CCC(=O)C2C(=O)NC(=O)NC2=O)cc1`, the melting point was in the range of 248 to 250 °C.
As to `Cc1c(C)c2c(c3c1NCC3)CC(C)(CI)O2` (configuration not stated), the melting point is 97 to 98 °C.
`Cc1ccc(OCCCCOc2ccc(C)cc2)cc1` displayed a melting point of 104 °C.
In turn, `OC12CC3CC(C1)C(NC(c1ccccc1)(c1ccccc1)c1ccccc1)C(C3)C2` (configuration not stated) registered a melting point of 166 to 170 °C.
For `COc1ccc2c(c1)COc1ccc(OCc3ccc4ccc(Cl)cc4n3)cc1C2SCCC(=O)O` (configuration not stated) the value was 177 to 179 °C; for `CC(C)Oc1ccc(OCc2ccccc2)cc1-c1nc2ccc(C#N)nc2[nH]1`, 214 to 215 °C; for `Clc1ccc(Nc2cncc(-n3cc4ccccc4n3)n2)cc1`, 249 to 252 °C.
Turning to `CC(C)C1=C(c2ccc(F)cc2)C(=O)C(C(C)C)=C(C(C)C)C1=O`, the melting point lay in the range of 122 to 124 °C.
Regarding `CCOC(=O)c1ccc(C#Cc2ccc3c(c2)C(=O)CC(C)(C)S3)cc1`, the melting point fell in the range of 102 to 104 °C.
Molecule `O=C1C(Cl)=C(c2ccccc2)C(=O)N1c1ccccc1Cl` displayed a melting point of 132 to 133 °C.
As for `CC1=CC(c2cccc(Cl)c2)C2=C(CCCC2=O)N1` (configuration not stated), the figure is 201 to 203 °C; as for `COCCOc1ccc(CCCNS(=O)(=O)c2ccccc2)c(Oc2ncc(C(F)(F)F)cc2Cl)c1`, 94 to 95 °C; as for `O=C1c2cccc(O)c2N=CC2CCCN12` (configuration not stated), 146 to 148 °C.
In the case of `CC(=O)NCC1CN(c2ccc(N3CCC(C)(O)C(C)(C)C3)c(F)c2)C(=O)O1` (configuration not stated), the melting point lay in the range of 114 to 116 °C.
